Measurements published in patent US20260256792A1, “TREATMENT OF CHRONIC SPONTANEOUS URTICARIA BY ADMINISTERING (R)-2-[3-[4-AMINO-3-(2-FLUORO-4-PHENOXY-PHENYL)PYRAZOLO[3,4-D]PYRIMIDIN-1-YL]PIPERIDINE-1-CARBONYL]-4-METHYL-4-[4-(OXETAN-3-YL)PIPERAZIN-1-YL]PENT-2-ENENITRILE” (priority 2023, published 2026).

Columns and labels:
[1] = system: moderate-to-severe chronic spontaneous urticaria (CSU); experiment: Phase 2 CSU study: Patient Global Impression of Change (PGIC); format: in vivo, human; conditions: for PGIC category A little better, patients / PGIC category A little worse, patients / PGIC category Moderately better, patients / PGIC category Moderately worse, patients / PGIC category No change, patients / PGIC category Very much better, patients / PGIC category Very much worse, patients / PGIC Mean (SD) / PGIC Median: omalizumab-naïve population; for PGIC LS Mean (SE) / PGIC LS Mean Diff vs. placebo (95% CI): omalizumab-naïve, ANCOVA
Description: The study comprises a 12 week, randomized, double-blind, placebo-controlled, multi-center, dose-ranging efficacy and safety phase, followed by a 40 week open label extension (OLE) phase (see FIG. 1).
The study consists of three phases and an optional OLE phase.
The PGIS is a 1-item measure that asks participants to provide a self-assessment of their overall CSU severity for the past week on a 4 point scale. Response choices are: “None”, “Mild”, “Moderate” and “Severe”. The PGIC is a 1-item measure that asks the participant to provide a self-assessment of overall change in their CSU since the participant started taking the study medication on a 7-point scale. The response options range from “Very Much Better” to “Very Much Worse.” Patients were to complete questionnaires for the 2 items during their site visit.

eosinophils = experiment: Phase 2 CSU study: immune cell phenotyping, eosinophil levels; format: in vivo, human; conditions: for Eosinophils (10^9/L) Median Percent Change from Baseline: Baseline to Week 12
Description: Collection of biological samples for other biomarker research was also part of this study. The following samples for biomarker research were required and were to be collected from all participants in this study: • Serum and plasma samples for soluble biomarkers and cellular tests. Analytes included IgG anti-IgE, IgG anti-FcεRI, IgG anti-TPO, IgE anti-TPO, IL-31, and sMRGPRX2. • Blood samples for immune cell phenotyping, including measurement of eosinophil levels • Blood samples for BTK occupancy in peripheral blood mononuclear cells (PBMCs) at selected sites

[2] = system: immune thrombocytopenic purpura (ITP); conditions: cited from earlier work

CC(C)(C=C(C#N)C(=O)N1CCC[C@@H](n2nc(-c3ccc(Oc4ccccc4)cc3F)c3c(N)ncnc32)C1)N1CCN(C2COC2)CC1 [rilzabrutinib, (R)-2-[3-[4-amino-3-(2-fluoro-4-phenoxy-phenyl)pyrazolo[3,4-d]pyrimidin-1-yl]piperidine-1-carbonyl]-4-methyl-4-[4-(oxetan-3-yl)piperazin-1-yl]pent-2-enenitrile]
PGIC category A little better, patients ([1]; Week 8, 400 mg BID): 3 (9.1)
PGIC category A little worse, patients ([1]; Week 8, 400 mg BID): 1 (3.0)
PGIC category Moderately better, patients ([1]; Week 8, 400 mg BID): 8 (24.2)
PGIC category Moderately worse, patients ([1]; Week 8, 400 mg BID): 1 (3.0)
PGIC category No change, patients ([1]; Week 8, 400 mg BID): 6 (18.2)
PGIC category Very much better, patients ([1]; Week 8, 400 mg BID): 13 (39.4)
PGIC category Very much worse, patients ([1]; Week 8, 400 mg BID): 1 (3.0)
PGIC LS Mean (SE) ([1]; Week 8, 400 mg BID): 1.43
PGIC LS Mean Diff vs. placebo (95% CI) ([1]; Week 8, 400 mg BID): −0.41
PGIC Mean (SD) ([1]; Week 8, 400 mg QPM): 2.21
PGIC Median ([1]; Week 8, 400 mg QPM): 2.00
PGIC category A little better, patients ([1]; Week 8, 400 mg QPM): 9 (27.3)
PGIC category A little worse, patients ([1]; Week 8, 400 mg QPM): 2 (6.1)
PGIC category Moderately better, patients ([1]; Week 8, 400 mg QPM): 6 (18.2)
PGIC category Moderately worse, patients ([1]; Week 8, 400 mg QPM): 1 (3.0)
PGIC category No change, patients ([1]; Week 8, 400 mg QPM): 10 (30.3)
PGIC category Very much better, patients ([1]; Week 8, 400 mg QPM): 4 (12.1)
PGIC category Very much worse, patients ([1]; Week 8, 400 mg QPM): 1 (3.0)
PGIC LS Mean (SE) ([1]; Week 8, 400 mg QPM): 2.10
PGIC LS Mean Diff vs. placebo (95% CI) ([1]; Week 8, 400 mg QPM): 0.27
PGIC Mean (SD) ([1]; Week 8, 400 mg TID): 0.90
PGIC Median ([1]; Week 8, 400 mg TID): 1.00
PGIC category A little better, patients ([1]; Week 8, 400 mg TID): 2 (6.7)
PGIC category A little worse, patients ([1]; Week 8, 400 mg TID): 1 (3.3)
PGIC category Moderately better, patients ([1]; Week 8, 400 mg TID): 10 (33.3)
PGIC category Moderately worse, patients ([1]; Week 8, 400 mg TID): 0
PGIC category No change, patients ([1]; Week 8, 400 mg TID): 3 (10.0)
PGIC category Very much better, patients ([1]; Week 8, 400 mg TID): 14 (46.7)
PGIC category Very much worse, patients ([1]; Week 8, 400 mg TID): 0
PGIC LS Mean (SE) ([1]; Week 8, 400 mg TID): 0.98
PGIC LS Mean Diff vs. placebo (95% CI) ([1]; Week 8, 400 mg TID): −0.86
PGIC Mean (SD) ([1]; Week 12, 400 mg BID): 1.03
PGIC Median ([1]; Week 12, 400 mg BID): 0.50
PGIC category A little better, patients ([1]; Week 12, 400 mg BID): 1 (3.3)
PGIC category A little worse, patients ([1]; Week 12, 400 mg BID): 1 (3.3)
PGIC category Moderately better, patients ([1]; Week 12, 400 mg BID): 8 (26.7)
PGIC category Moderately worse, patients ([1]; Week 12, 400 mg BID): 1 (3.3)
PGIC category No change, patients ([1]; Week 12, 400 mg BID): 4 (13.3)
PGIC category Very much better, patients ([1]; Week 12, 400 mg BID): 15 (50.0)
PGIC category Very much worse, patients ([1]; Week 12, 400 mg BID): 0
PGIC LS Mean (SE) ([1]; Week 12, 400 mg BID): 1.17
PGIC LS Mean Diff vs. placebo (95% CI) ([1]; Week 12, 400 mg BID): −0.46
PGIC Mean (SD) ([1]; Week 12, 400 mg QPM): 2.12
PGIC Median ([1]; Week 12, 400 mg QPM): 2.00
PGIC category A little better, patients ([1]; Week 12, 400 mg QPM): 7 (20.6)
PGIC category A little worse, patients ([1]; Week 12, 400 mg QPM): 2 (5.9)
PGIC category Moderately better, patients ([1]; Week 12, 400 mg QPM): 6 (17.6)
PGIC category Moderately worse, patients ([1]; Week 12, 400 mg QPM): 1 (2.9)
PGIC category No change, patients ([1]; Week 12, 400 mg QPM): 11 (32.4)
PGIC category Very much better, patients ([1]; Week 12, 400 mg QPM): 6 (17.6)
PGIC category Very much worse, patients ([1]; Week 12, 400 mg QPM): 1 (2.9)
PGIC LS Mean (SE) ([1]; Week 12, 400 mg QPM): 2.00
PGIC LS Mean Diff vs. placebo (95% CI) ([1]; Week 12, 400 mg QPM): 0.38
PGIC Mean (SD) ([1]; Week 12, 400 mg TID): 0.97
PGIC Median ([1]; Week 12, 400 mg TID): 0.00
PGIC category A little better, patients ([1]; Week 12, 400 mg TID): 4 (12.9)
PGIC category A little worse, patients ([1]; Week 12, 400 mg TID): 2 (6.5)
PGIC category Moderately better, patients ([1]; Week 12, 400 mg TID): 5 (16.1)
PGIC category Moderately worse, patients ([1]; Week 12, 400 mg TID): 0
PGIC category No change, patients ([1]; Week 12, 400 mg TID): 3 (9.7)
PGIC category Very much better, patients ([1]; Week 12, 400 mg TID): 17 (54.8)
PGIC category Very much worse, patients ([1]; Week 12, 400 mg TID): 0
PGIC LS Mean (SE) ([1]; Week 12, 400 mg TID): 0.98
PGIC LS Mean Diff vs. placebo (95% CI) ([1]; Week 12, 400 mg TID): −0.64
reduction in eosinophil levels (eosinophils; 400 mg TID, Week 12): 29.0%
Eosinophils (10^9/L) Median Percent Change from Baseline (eosinophils; 400 mg BID): −11.8%
Eosinophils (10^9/L) Median Percent Change from Baseline (eosinophils; 400 mg QPM): 7.7%
Eosinophils (10^9/L) Median Percent Change from Baseline (eosinophils; 400 mg TID): −29.0%
treatment-emergent serious adverse events (TESAEs) ([2]; ITP Phase 1/2): no treatment-emergent serious adverse events
participants achieving the primary response endpoint ([2]; ITP, treatment for at least 12 weeks): 50%
